PMC4501499 (MedChemComm, 2015)

Key:
rat UT-A1 = target: T1, rat UT-A1 (Rattus norvegicus, UniProt Q62668); assay: UT-A1 inhibition assay; format: cell-based; details: for UT inhibition activity (in words): text summary of urea transport inhibition (UT-A1 / UT-B, Table 1)
T1 sequence (Q62668 1-929): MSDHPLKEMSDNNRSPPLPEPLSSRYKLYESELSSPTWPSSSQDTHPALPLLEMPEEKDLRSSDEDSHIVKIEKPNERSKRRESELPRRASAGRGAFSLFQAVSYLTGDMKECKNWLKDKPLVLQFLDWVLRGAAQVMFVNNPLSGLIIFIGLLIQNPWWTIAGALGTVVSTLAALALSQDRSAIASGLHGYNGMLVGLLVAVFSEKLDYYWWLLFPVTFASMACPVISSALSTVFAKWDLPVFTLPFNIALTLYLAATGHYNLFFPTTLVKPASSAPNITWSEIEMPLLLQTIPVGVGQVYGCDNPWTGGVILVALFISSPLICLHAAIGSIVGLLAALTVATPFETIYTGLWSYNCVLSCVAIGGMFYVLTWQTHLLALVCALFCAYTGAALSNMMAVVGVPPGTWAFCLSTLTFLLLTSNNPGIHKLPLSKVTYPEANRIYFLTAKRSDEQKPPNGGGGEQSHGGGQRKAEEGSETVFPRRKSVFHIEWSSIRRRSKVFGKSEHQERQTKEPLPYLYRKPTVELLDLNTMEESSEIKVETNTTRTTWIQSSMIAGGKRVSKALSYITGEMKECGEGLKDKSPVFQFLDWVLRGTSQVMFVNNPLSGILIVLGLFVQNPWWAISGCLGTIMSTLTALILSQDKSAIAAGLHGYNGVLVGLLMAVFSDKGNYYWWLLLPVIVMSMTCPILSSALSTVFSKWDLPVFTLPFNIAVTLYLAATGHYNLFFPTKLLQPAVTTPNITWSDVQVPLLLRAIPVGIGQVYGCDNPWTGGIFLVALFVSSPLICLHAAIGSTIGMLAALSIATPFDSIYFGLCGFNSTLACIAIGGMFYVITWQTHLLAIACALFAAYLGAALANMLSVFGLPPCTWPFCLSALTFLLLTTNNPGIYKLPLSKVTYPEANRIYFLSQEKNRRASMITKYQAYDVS

[1] = in vitro microsomal stability with NADPH, LC/MS; details: rat liver microsomes
UT-B = target: T2, UT-B (Rattus norvegicus, UniProt P97689); assay: UT-B inhibition assay; format: cell-based; details: concentration-inhibition fit
T2 sequence (P97689 1-384): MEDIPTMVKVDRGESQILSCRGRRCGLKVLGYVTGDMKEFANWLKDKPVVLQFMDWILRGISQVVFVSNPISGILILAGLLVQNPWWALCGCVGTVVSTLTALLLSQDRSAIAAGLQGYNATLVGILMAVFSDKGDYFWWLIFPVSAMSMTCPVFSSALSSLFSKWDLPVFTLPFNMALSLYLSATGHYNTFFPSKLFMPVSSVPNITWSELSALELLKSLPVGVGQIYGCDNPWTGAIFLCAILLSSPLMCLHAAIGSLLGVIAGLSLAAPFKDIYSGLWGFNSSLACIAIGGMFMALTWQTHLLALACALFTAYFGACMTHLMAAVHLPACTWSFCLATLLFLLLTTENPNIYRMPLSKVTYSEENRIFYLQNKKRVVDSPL

Structure (SMILES) | UT inhibition activity (in words) (rat UT-A1) | [M+H-16] metabolite by LC/MS [1] | further results
CS(=O)(=O)Nc1ccc2c(c1)C(=O)c1cc(NS(C)(=O)=O)ccc1-2 [compound 9] | strong inhibition |  | 
O=C1c2cc(NC(=O)C(F)(F)F)ccc2-c2ccc(NC(=O)C(F)(F)F)cc21 [compound 7] | much less active |  | 
O=C(CO)Nc1ccc2c(c1)C(=O)c1cc(NC(=O)CO)ccc1-2 [compound 12] | low activity |  | 
CC(=O)Nc1cccc(C(=O)c2cccc(NC(C)=O)c2)c1 [compound 22] |  | not detected | 
CC(=O)Nc1ccc2c(c1)C(=NO)c1cc(NC(C)=O)ccc1-2 [compound 17] |  | not detected | 
CC(=O)Nc1ccc2c(c1)C(=O)c1cc(NC(C)=O)ccc1-2 [compound 3, 2,7-bisacetamido fluoren-9-one] |  | detected | extent of UT-A1 inhibition at higher concentrations (rat UT-A1; higher concentrations): complete inhibition; reversibility of UT-A1 inhibition (rat UT-A1; incubation near IC50, then washing with PBS): complete reversibility; time to complete inhibition of UT-A1 (rat UT-A1; inhibition kinetics): ≤ 40 s; Hill coefficient, UT-A1 (rat UT-A1; rat UT-A1, concentration-inhibition fit): 0.9; inhibition mechanism (urea competition) (rat UT-A1; urea 80 to 1,600 mM, apparent IC50 independent of urea concentration): non-competitive; Hill coefficient, UT-B (UT-B): 1.1
CS(=O)(=O)Nc1cccc(C(=O)c2cccc(NS(C)(=O)=O)c2)c1 [compound 24, bismethanesulfonamidobenzophenone] | inactive |  | 
